Laboratory results from patent publication US20210198277A1, “AMINE-SUBSTITUTED ARYL OR HETEROARYL COMPOUNDS” (Epizyme, Inc., priority 2016, published 2021).

The molecules below were run against T1, EHMT2 (Homo sapiens, UniProt Q96KQ7) (assay: MDA-MB-231 H3K9me2 in-cell Western assay (EHMT2 ICW)). Settings: Table VI; read-out: EHMT2 ICW IC50.
T1 construct: host or cells: MDA-MB-231
T1 sequence (Q96KQ7 1-1210): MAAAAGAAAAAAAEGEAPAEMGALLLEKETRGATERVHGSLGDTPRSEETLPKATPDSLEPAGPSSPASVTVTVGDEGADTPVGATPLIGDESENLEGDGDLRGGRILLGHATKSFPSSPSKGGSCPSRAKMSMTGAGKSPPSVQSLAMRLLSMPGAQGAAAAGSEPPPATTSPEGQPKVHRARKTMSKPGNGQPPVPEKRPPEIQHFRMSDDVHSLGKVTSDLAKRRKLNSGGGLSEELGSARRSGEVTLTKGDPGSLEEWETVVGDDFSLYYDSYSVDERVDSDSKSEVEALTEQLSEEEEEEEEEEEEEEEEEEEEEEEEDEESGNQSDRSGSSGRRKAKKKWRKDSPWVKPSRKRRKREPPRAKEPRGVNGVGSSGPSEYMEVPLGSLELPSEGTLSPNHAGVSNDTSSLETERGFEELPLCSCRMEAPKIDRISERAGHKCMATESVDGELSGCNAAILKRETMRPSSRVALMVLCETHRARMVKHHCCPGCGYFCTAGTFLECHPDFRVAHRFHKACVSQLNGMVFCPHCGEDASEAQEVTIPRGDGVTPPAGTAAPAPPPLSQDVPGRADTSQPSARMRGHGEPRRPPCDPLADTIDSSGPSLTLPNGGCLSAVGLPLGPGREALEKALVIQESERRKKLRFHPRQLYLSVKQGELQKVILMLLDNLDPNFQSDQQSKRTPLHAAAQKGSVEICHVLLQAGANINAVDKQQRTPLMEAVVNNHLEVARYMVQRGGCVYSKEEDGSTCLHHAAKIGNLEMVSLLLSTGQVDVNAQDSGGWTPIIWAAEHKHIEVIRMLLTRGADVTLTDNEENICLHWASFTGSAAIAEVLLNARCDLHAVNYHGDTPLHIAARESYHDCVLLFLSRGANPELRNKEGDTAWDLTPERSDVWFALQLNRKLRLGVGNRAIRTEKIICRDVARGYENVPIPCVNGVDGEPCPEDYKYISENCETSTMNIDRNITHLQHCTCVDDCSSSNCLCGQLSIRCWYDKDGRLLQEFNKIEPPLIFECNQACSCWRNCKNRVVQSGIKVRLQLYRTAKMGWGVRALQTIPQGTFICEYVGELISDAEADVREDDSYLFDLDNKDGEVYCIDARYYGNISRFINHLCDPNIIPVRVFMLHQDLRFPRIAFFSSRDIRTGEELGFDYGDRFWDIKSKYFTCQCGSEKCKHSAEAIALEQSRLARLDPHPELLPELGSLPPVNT
Format: cell-based
In short: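 For 48 h at 37 °C, breast cancer MDA-MB-231 cells were incubated with compound, then fixed and immunostained for H3K9me2, with DRAQ5 used for normalisation. Each well's signal ratio yielded percent inhibition, and IC50 values were derived by fitting a four-parameter curve.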

Row | Compound | IC50 [nM]
1 | COc1cc2c(C)cc(N3CCCCC3)nc2cc1OCCCN1CCCC1 [Compound 810] | 1000 to 10000
2 | COc1cc2c(C)nc(N3CCCCC3)nc2cc1OCCCN1CCCC1 [Compound 811] | > 10000
3 | CNc1cc(C)nc(Nc2ccc(OC)c(CN[C@H]3CCNC3)c2)n1 [Compound 813] | > 10000
4 | CNc1cc(C)nc(Nc2ccc(OC)c(CN[C@@H]3CCNC3)c2)c1 [Compound 814] | > 10000
5 | COc1cc2c(C3CCOCC3)cc(=O)[nH]c2cc1OCCCN1CCCC1 [Compound 822] | > 10000
6 | COc1cc2c(C3CCOCC3)cc(N3CCCCC3)nc2cc1OCCCN1CCCC1 [Compound 824] | 1000 to 10000
7 | COc1cc2c(C3CCOCC3)cc(N(C)C)nc2cc1OCCCN1CCCC1 [Compound 825] | 1000 to 10000
8 | COc1cc2c(C3CCN(C(C)=O)CC3)cc(C)nc2cc1OCCCN1CCCC1 [Compound 834] | 1000 to 10000
9 | CCS(=O)(=O)N1CCC(c2cc(C)nc3cc(OCCCN4CCCC4)c(OC)cc23)CC1 [Compound 836] | 1000 to 10000
10 | COc1cc2c(C3CCN(CC(F)(F)F)CC3)cc(C)nc2cc1OCCCN1CCCC1 [Compound 837] | 1000 to 10000
11 | COc1cc2c(C3CCN(CC(F)(F)F)CC3)nc(C)nc2cc1OCCCN1CCCC1 [Compound 841] | > 10000
12 | CNc1cc(C)nc(Nc2ccc(OC)c(C#CC3CCN(C)C3)c2)n1 (stereo not shown) [Compound 847] | 1000 to 10000
13 | CNc1cc(C)nc(Nc2ccc(OC)c(C#CC3CCCN3C)c2)n1 (stereo not shown) [Compound 848] | 100 to 1000
14 | CNC(=O)c1cc(C)nc(Nc2ccc(OC)c(OCCCN3CCCC3)c2)n1 [Compound 854] | > 10000
15 | CNc1cc(C)c2cc(OC)c(C#CCN3CCCC3)cc2n1 [Compound 859] | 100 to 1000
16 | CNc1cc(C)nc(Nc2ccc(OC)c(C#CCN3CCN(C)CC3)c2)n1 [Compound 860] | > 10000
17 | COc1cc2c(C3CCN([C@@H]4CCOC4)CC3)cc(C)nc2cc1OCCCN1CCCC1 [Compound 863] | 100 to 1000

The next lines start with the values.

Row | IC50 [nM] | Compound
18 | 100 to 1000 | CNc1cc(C2CCN(C(C)=O)CC2)c2cc(OC)c(OCCCN3CCCC3)cc2n1 [Compound 809]
19 | 100 to 1000 | COc1cc2c(C3CCN(C)CC3)cc(N3CCCCC3)nc2cc1OCCCN1CCCC1 [Compound 812]
20 | 100 to 1000 | CNc1cc(C2CCCCC2)c2cc(OC)c(OCCCN3CCCC3)cc2n1 [Compound 816]
21 | 100 to 1000 | CNc1cc(C(C)C)c2cc(OC)c(OCCCN3CCCC3)cc2n1 [Compound 817]
22 | 100 to 1000 | CNc1cc(CC2CCOCC2)c2cc(OC)c(OCCCN3CCCC3)cc2n1 [Compound 823]
23 | < 100 | CNc1cc(C2CCN(CCC(F)(F)F)CC2)c2cc(OC)c(OCCCN3CCCC3)cc2n1 [Compound 832]
24 | 100 to 1000 | CNc1cc(C2CCN(CC(F)(F)F)CC2)c2cc(OC)c(OCCCN3CCCC3)cc2n1 [Compound 833]
25 | 100 to 1000 | COc1cc2c(C3CCN(CCC(F)(F)F)CC3)cc(C)nc2cc1OCCCN1CCCC1 [Compound 838]
26 | < 100 | CNc1cc(C2CCN(CCOC)CC2)c2cc(OC)c(OCCCN3CCCC3)cc2n1 [Compound 839]
27 | 100 to 1000 | CNc1cc(C)nc(Nc2ccc(OC)c(C#CC3CCNC3)c2)n1 (stereo not shown) [Compound 845]
28 | 100 to 1000 | CNc1cc(C)nc(Nc2ccc(OC)c(C#CC3CCCN3)c2)n1 (stereo not shown) [Compound 846]
